ChEMBL document CHEMBL4706683 (J Med Chem, 2021)
Calls of active or inactive are those of the source. The rule behind the calls is not given here.

Assays:
[1] = Half life in mouse liver microsomes incubated upto 45 mins in presence of NADPH by LC-MS/MS analysis; assay type: ADME, Microsome
[2] = AUC (0 to infinity) in Balb/c mouse at 5 mg/kg, ip administered as single dose measured upto 24 hrs by LC-MS/MS analysis; assay type: ADME, organism-based; design: route intraperitoneal, dose 5 mg/kg, time <=24; details: in vivo
[3] = Tmax in Balb/c mouse at 5 mg/kg, ip administered as single dose measured upto 24 hrs by LC-MS/MS analysis; assay type: ADME, organism-based; details: in vivo
Histone deacetylase 2 = Histone deacetylase 2 (Homo sapiens, UniProt Q92769); test: Inhibition of human HDAC2 expressed in Sf9 cells using Ac-peptide as substrate preincubated for 15 mins followed by substrate and trypsin addition and further incubated for 60 mins
Plasmodium falciparum [4] = test: Antiplasmodial activity against artemisinin-resistant Plasmodium falciparum 6218 infected in human erythrocytes assessed as reduction in parasite growth incubated for 72 hrs by Giemsa staining based light microscopic method; assay type: functional, organism-based; details: Plasmodium falciparum, 6218, Erythrocyte
[5] = Toxicity in Balb/c mouse infected with blood stage Plasmodium yoelii assessed as recrudescence at 10 to 30 mg/kg, ip QD for 5 consecutive days and measured on day 20; assay type: organism-based; details: in vivo, 120 h, dose 10-30 mg/kg, time 5 day
Plasmodium falciparum [6] = test: Antimalarial activity against synchronized schizont stage transgenic Plasmodium falciparum 3D7 with C-terminal 3xTY1-fused HDAC2 knockdown assessed as parasite growth inhibition pretreated with glucosamine followed by compound treatment and incubated for 4 hrs followed by compound washout for thrice and subsequent culturing for 68 hrs by SYBR Green 1 staining based analysis; assay type: functional, organism-based
Plasmodium falciparum [7] = test: Antiplasmodial activity against artemisinin-resistant ring stage Plasmodium falciparum 6320 infected in human erythrocytes assessed as reduction in parasite growth incubated for 72 hrs by Giemsa staining based light microscopic method; assay type: functional, organism-based; details: Plasmodium falciparum, 6320, Erythrocyte
Plasmodium falciparum [8] = test: Antiplasmodial activity against Plasmodium falciparum C2A infected in human erythrocytes assessed as reduction in parasite growth incubated for 72 hrs by Giemsa staining based light microscopic method; assay type: functional, organism-based; details: Erythrocyte
[9] = AUC (0 to infinity) in Balb/c mouse at 2 mg/kg, iv administered as single dose measured up to 24 hrs by LC-MS/MS analysis; assay type: ADME, organism-based; design: route intravenous, dose 2 mg/kg, time <=24; details: in vivo
Plasmodium falciparum [10] = test: Antiplasmodial activity against synchronized ring stage Plasmodium falciparum 3D7 infected in human erythrocytes assessed as new ring stage formation at 10 times IC50 incubated for 12 hrs followed by compound washout and measured at 50 hrs by […] analysis; assay type: functional, organism-based; details: Erythrocyte
[11] = Cmax in Balb/c mouse at 10 mg/kg, po administered as single dose measured upto 24 hrs by LC-MS/MS analysis; assay type: ADME, organism-based; design: route oral, dose 10 mg/kg, time <=24; details: in vivo
Plasmodium berghei = test: Antiplasmodial activity against liver stage Plasmodium berghei infected in Balb/c mouse assessed as reduction in parasitemia at 30 mg/kg, ip administered as single dose and measured upto 96 hrs by microscopic analysis; assay type: functional, organism-based; details: time hrs <=96
[12] = Inhibition of recombinant full length C-terminal His/FLAG-tagged Plasmodium falciparum HDAC1 expressed in baculovirus infected sf9 insect cells using fluorogenic […] as substrate preincubated for 1.5 hrs followed by substrate addition and measured after 30 mins by HDAC-GloI/II assay
Plasmodium falciparum [13] = test: Antiplasmodial activity against schizont stage Plasmodium falciparum 3D7 infected in human erythrocytes assessed as reduction in parasitemia at 10 times IC50 incubated for 12 hrs followed by compound washout and measured at 96 hrs post infection by […] analysis; assay type: functional, organism-based; details: Erythrocyte
[14] = Tmax in Balb/c mouse at 10 mg/kg, po administered as single dose measured upto 24 hrs by LC-MS/MS analysis; assay type: ADME, organism-based; details: in vivo
[15] = Half life in Balb/c mouse at 10 mg/kg, po administered as single dose measured upto 24 hrs by LC-MS/MS analysis; assay type: ADME, organism-based; details: in vivo
[16] = Clearance in mouse liver microsomes incubated upto 45 mins in presence of NADPH by LC-MS/MS analysis; assay type: ADME, Microsome; details: read-out: CLH
[17] = Toxicity in Balb/c mouse infected with blood stage Plasmodium yoelii assessed as animal death at 10 to 30 mg/kg, ip QD for 5 consecutive days and measured on day 6; assay type: organism-based; details: in vivo, 120 h, dose 10-30 mg/kg, time 5 day
[18] = Apparent volume of distribution during terminal phase in Balb/c mouse at 2 mg/kg, iv administered as single dose measured upto 24 hrs by LC-MS/MS analysis; assay type: ADME, organism-based; details: in vivo
[19] = Cmax in Balb/c mouse at 5 mg/kg, ip administered as single dose measured upto 24 hrs by LC-MS/MS analysis; assay type: ADME, organism-based; design: route intraperitoneal, dose 5 mg/kg, time <=24; details: in vivo
[20] = Selectivity index, ratio of IC50 for cytotoxicity against human HepG2 cells assessed to IC50 for antiplasmodial activity against synchronized ring stage Plasmodium falciparum 3D7 infected in human erythrocytes; assay type: toxicity, cell-based; details: read-out: Ratio IC50
[21] = Half life in Balb/c mouse at 2 mg/kg, iv administered as single dose measured upto 24 hrs by LC-MS/MS analysis; assay type: ADME, organism-based; details: in vivo
Plasmodium falciparum [22] = test: Antiplasmodial activity against Plasmodium falciparum GB4 infected in human erythrocytes assessed as reduction in parasite growth incubated for 72 hrs by Giemsa staining based light microscopic method; assay type: functional, organism-based; details: GB4, Erythrocyte
[23] = target: T1, NAD-dependent protein deacetylase sirtuin-2 (Homo sapiens, UniProt Q8IXJ6); test: Inhibition of human C-terminal His-tagged SIRT2 (50 to 356 residues) expressed in Escherichia coli using Ac-peptide as substrate preincubated for 15 mins followed by substrate addition and incubated for 240 mins followed by trypsin addition and further incubated for 120 mins
T1 sequence (Q8IXJ6 whole entry): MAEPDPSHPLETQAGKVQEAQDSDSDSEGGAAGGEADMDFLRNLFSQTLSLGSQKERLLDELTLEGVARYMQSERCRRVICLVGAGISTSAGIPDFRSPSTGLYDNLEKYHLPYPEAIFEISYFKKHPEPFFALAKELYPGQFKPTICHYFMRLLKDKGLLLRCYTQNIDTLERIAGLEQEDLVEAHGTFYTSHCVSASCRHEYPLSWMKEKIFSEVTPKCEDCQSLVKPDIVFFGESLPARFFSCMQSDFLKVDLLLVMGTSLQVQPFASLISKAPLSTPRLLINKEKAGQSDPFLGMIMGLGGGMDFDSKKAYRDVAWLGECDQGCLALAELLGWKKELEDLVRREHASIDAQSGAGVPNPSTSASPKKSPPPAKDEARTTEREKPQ

Plasmodium falciparum [24] = test: Antiplasmodial activity against synchronized ring stage Plasmodium falciparum 3D7 infected in human erythrocytes assessed as reduction in parasite growth incubated for 72 hrs by Giemsa staining based light microscopic method; assay type: functional, organism-based; details: 3D7, Erythrocyte
HepG2 = test: Cytotoxicity against human HepG2 cells assessed as reduction in cell viability incubated for 72 hrs by cell titer glo assay; assay type: cell-based; details: HepG2, 72 h
Plasmodium falciparum [25] = test: Antiplasmodial activity against Plasmodium falciparum CP286 infected in human erythrocytes assessed as reduction in parasite growth incubated for 72 hrs by Giemsa staining based light microscopic method; assay type: functional, organism-based; details: CP286, Erythrocyte
[26] = Apparent volume of distribution during terminal phase in Balb/c mouse at 5 mg/kg, ip administered as single dose measured upto 24 hrs by LC-MS/MS analysis; assay type: ADME, organism-based; details: in vivo, 5 mg/kg, 24 h
[27] = AUC (0 to t) in Balb/c mouse at 10 mg/kg, po administered as single dose measured upto 24 hrs by LC-MS/MS analysis; assay type: ADME, organism-based; design: route oral, dose 10 mg/kg, time <=24; details: in vivo
Plasmodium falciparum [28] = test: Antiplasmodial activity against artemisinin-resistant Plasmodium falciparum 6320 assessed as reduction in parasite survival at 700 nM incubated for 6 hrs followed by compound washout thrice and further cultured in compound free medium for 66 hrs by RSA; assay type: functional, organism-based

Sequence of Histone deacetylase 2 (Q92769 whole entry): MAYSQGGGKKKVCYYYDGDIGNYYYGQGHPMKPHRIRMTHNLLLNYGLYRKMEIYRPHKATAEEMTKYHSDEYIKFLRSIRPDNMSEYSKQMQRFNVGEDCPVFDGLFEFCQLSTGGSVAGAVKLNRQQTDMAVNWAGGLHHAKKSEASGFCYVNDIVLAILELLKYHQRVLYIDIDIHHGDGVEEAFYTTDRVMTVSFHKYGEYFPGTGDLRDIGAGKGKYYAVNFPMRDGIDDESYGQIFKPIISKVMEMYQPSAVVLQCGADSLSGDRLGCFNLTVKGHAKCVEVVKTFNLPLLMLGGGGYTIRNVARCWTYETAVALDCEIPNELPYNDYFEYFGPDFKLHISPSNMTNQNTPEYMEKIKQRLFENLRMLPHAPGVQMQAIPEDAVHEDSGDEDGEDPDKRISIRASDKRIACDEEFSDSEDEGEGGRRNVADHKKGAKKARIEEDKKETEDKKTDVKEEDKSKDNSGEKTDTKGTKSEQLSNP

Cl.O=C(NO)c1cnc(N2CCC3(CCN(Cc4c[nH]c5ccccc45)C3)CC2)nc1
half-life [1]: 45 min | AUC(0-inf) [2]: 95.1 ng·h/mL | Tmax [3]: 15 min | IC50 (Histone deacetylase 2): 1.8 nM | IC50 (Plasmodium falciparum [4]): 3 nM | Activity [5]: Toxic | IC50 (Plasmodium falciparum [6]): 52.2 nM | IC50 (Plasmodium falciparum [7]): 2.9 nM | IC50 (Plasmodium falciparum [8]): 4.5 nM | AUC(0-inf) [9]: 119 ng·h/mL | Activity (Plasmodium falciparum [10]): Active | Cmax [11]: 2.49 ng/mL | Activity (Plasmodium berghei): Active | IC50 [12]: 0.343 nM | Activity (Plasmodium falciparum [13]): Active | Tmax [14]: 15 min | half-life [15]: 104 min | CLint scaled [16]: 121 mL/min/kg | Activity [17]: Non-Toxic | Vz/F [18]: 10.3 L/kg | Cmax [19]: 108 ng/mL | selectivity ratio [20]: 83 | half-life [21]: 43.2 min | IC50 (Plasmodium falciparum [22]): 3.9 nM | IC50 [23]: > 10000 nM | IC50 (Plasmodium falciparum [24]): 3.19 nM | IC50 (HepG2): 264 nM | IC50 (Plasmodium falciparum [25]): 4.26 nM | Vz/F [26]: 60.4 L/kg | AUC(0-t) at 24 h [27]: 2.94 ng·h/mL | Activity (Plasmodium falciparum [28]): Active
